In one test the test system is NCI-H292 cells. Kind of test: Mucin production inhibitory action (EGF-stimulated, mucin ELISA of culture supernatant). Type of test: cell-based, human. The note with it: for Effect on production of mucin (in words): 1-10 μM, EGF-stimulated NCI-H292 cells. Here is the method: Mucin Production Inhibitory Action
The test was carried out in accordance with a partially modified method of Takeyama et al. (Proc. Natl. Acad. Sci. USA, Vol. 96, P. 3081-3086, 1999). The specific procedure will be described as follows. NCI-H292 cells, which are human respiratory tract epithelial cell lines, were suspended in a 10% FCS-containing RPMI 1640-culture medium, and disseminated to a 12-well culture plate so that the cell concentration of each well was adjusted to 2×10^5 cell/well, followed by culturing for two days. Subsequently, the culture medium was changed to a 0.2% FCS-containing RPMI culture medium, followed by culturing for another two days. The thus-cultured cells were employed in the test. Each test drug and EGF (25 ng/mL) were added to each well, and the mucin level of the supernatant of the culture 48 hours after initiation of culturing was determined through the ELISA method. Percent inhibition (%) with regard to control value was calculated by supposing the difference produced by subtracting normal value from control value to be 100%. In this case, the control value is defined as the mucin amount in the culture supernatant to which only EGF was added, while the normal value is defined as the muchin amount in the culture supernatant containing neither of test drug and EGF. In addition, cilomilast (J. Pharmacol. Exp. Ther., Vol. 284, p. 420-426, 1998) and roflumilast (J. Pharmacol. Exp. Ther., Vol. 297, p. 267-279, 2001), which are typical phosphodiesterase (IV) inhibitors were also tested in a similar manner.

A further test relates to Lewis Wistar rats. Put plainly: Inhibitory effect on hyperplasia of goblet cells in the respiratory tract epithelium (Sephadex-induced, PAS staining). It is filed as in vivo, rat. The note with it: oral, once per day for seven days; Sephadex i.v.; ratio of PAS-positive area. As to the method:
(Welch test), the value in each parenthesis represents percent inhibition (%)
The test was carried out in accordance with a partially modified method of Matsubara et al. (Int. Arch. Allergy Immunol., Vol. 116, p. 67-75, 1998). The specific procedure will be described as follows. To each of the 7-week old male Lewis Wistar rats, a Sephadex suspension (0.1. mg/mL/head) was intravenously administered (total three times: day 0, 2, and 5). Two days after the final administration, the rat was slaughtered by exsanguination under anesthetic with pentobarbital. The lung-tissue was extirpated from the rat and immersed in a neutral formalin buffer for fixation. […] The ratio of the PAS-stained positive area to the respiratory tract epithelium was calculated by use of an image analysis software (Winroof). Each test compound was suspended in 0.5% hydroxypropylmethyl cellulose (HPMC), and the suspension-was orally administered once per day for continuous seven days from the start of administration of Sephadex. In the Figure, numerical data are represented by mean value±standard deviation (each group: 11-12 samples).

We go through four compounds from patent publication US20050222234A1, “Mucin production inhibitor” (TAIHO PHARMACEUTICAL CO., LTD., priority 2004, published 2005).

Each structure is given as a SMILES string.

As for `COc1ccc([C@]2(C#N)CC[C@@H](C(=O)O)CC2)cc1OC1CCCC1` [Cilomilast, cilomilast, reference compound], the “Effect on production of mucin (in words)” value in the test on NCI-H292 cells is “promoted production of mucin”.
For `COc1ccc(-c2nc3cc(-n4cncn4)ccc3[nH]2)cc1OCC1CC1` [Compound 1], the “Effect on hyperplasia of goblet cells (in words, FIG. 1)” value with Lewis Wistar rats was “inhibitory effect”.
A word on the inhibition: it is the share of the control response that was lost under treatment. As for `CCC(CC)Oc1cc(-c2nc3cc(-n4cncn4)ccc3[nH]2)ccc1OC` [Compound 5], in the test with NCI-H292 cells (Homo sapiens, NCI-H292, 1 μM test drug, EGF 25 ng/mL, supernatant after 48 hours, read-out: Percent inhibition of mucin production (%)), the inhibition at 1 µM came out at 15.4%. In addition, the inhibition at 3 µM in the test on NCI-H292 cells (Homo sapiens, NCI-H292, 3 μM test drug, EGF 25 ng/mL, supernatant after 48 hours, read-out: Percent inhibition of mucin production (%)) stood at 40.2%. Moreover, in the test with NCI-H292 cells (Homo sapiens, NCI-H292, 10 μM test drug, EGF 25 ng/mL, supernatant after 48 hours, read-out: Percent inhibition of mucin production (%)), the inhibition at 10 µM came out at 65.9%.
With `O=C(Nc1c(Cl)cncc1Cl)c1ccc(OC(F)F)c(OCC2CC2)c1` [Roflumilast, roflumilast, reference compound], the “Effect on production of mucin (in words)” value with NCI-H292 cells is recorded as “promoted production of mucin”.
